Test results: patent publication US7396837B2, “Antitumoral analogs of lamellarins” (Pharma Mar, S.A.U., priority 2002, dated 2008)
Blank lines part the entries; values can stand above or below the compound they belong to.

What was measured:
human topoisomerase I [1] = biological target: T1, human topoisomerase I (Homo sapiens, UniProt P11387); assay: Topoisomerase I DNA relaxation assay (supercoiled plasmid DNA); format: biochemical; conditions: for stimulation of DNA cleavage by topoisomerase I / inhibition of topoisomerase I (nicked DNA band) in DNA relaxation assay: supercoiled plasmid DNA, each compound tested at 1 μM, agarose gel with ethidium bromide
T1 sequence (P11387 1-765): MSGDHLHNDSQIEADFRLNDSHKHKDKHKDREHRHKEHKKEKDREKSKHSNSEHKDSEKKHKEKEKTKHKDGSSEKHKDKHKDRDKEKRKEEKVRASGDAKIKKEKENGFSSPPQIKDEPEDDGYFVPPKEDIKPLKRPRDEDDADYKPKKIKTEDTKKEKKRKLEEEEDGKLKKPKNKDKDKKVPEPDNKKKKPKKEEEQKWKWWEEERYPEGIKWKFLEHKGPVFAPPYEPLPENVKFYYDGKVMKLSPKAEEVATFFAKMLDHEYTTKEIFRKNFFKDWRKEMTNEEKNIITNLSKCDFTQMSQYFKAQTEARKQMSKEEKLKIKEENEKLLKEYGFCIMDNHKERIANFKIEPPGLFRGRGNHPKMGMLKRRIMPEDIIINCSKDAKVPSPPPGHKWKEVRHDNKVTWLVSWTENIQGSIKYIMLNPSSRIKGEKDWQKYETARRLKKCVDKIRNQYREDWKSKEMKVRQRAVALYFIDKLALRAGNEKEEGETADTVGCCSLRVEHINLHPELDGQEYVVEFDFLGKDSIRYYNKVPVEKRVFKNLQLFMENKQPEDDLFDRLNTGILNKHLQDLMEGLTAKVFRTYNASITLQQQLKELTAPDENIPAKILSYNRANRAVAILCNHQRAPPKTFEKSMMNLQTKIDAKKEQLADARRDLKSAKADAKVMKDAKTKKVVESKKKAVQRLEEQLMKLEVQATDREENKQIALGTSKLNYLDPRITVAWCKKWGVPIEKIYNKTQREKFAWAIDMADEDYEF
Procedure: (§1) Two assays, based on DNA relaxation and DNA cleavage (Bailly, C. DNA relaxation and cleavage assays to study topoisomerase I inhibitors. Methods Enzymol. 2001, 340, 610-623) were used evaluate the effects of the lamellarin analogs on the catalytic activity of human topoisomerase I.
In the first assay, a supercoiled plasmid DNA was relaxed with topoisomerase I in the absence or presence of the test compounds, each tested at 1 μM. DNA relaxation products were then resolved by gel electrophoresis on agarose gels containing ethidium bromide to stain the DNA.

human topoisomerase I [2] = biological target: T1, human topoisomerase I; assay: Topoisomerase I cleavage of radiolabeled 117-bp DNA fragment; format: biochemical; conditions: 117-bp DNA restriction fragment 3' end-labeled, sequencing-type polyacrylamide gels
Source text: as §1
A second assay, based on the cleavage of a radiolabeled DNA substrate by topoisomerase I, was used to confirm that the cationic lamellarin derivatives do effectively function as topoisomerase I poisons. A 117-bp DNA restriction fragment uniquely end-labeled at the 3′ end was subjected to cleavage by topoisomerase I in the presence of the different compounds and the resulting DNA cleavage products were resolved on sequencing-type polyacrylamide gels. The advantage of this assay is to detect the cleavage sites and to locate their positions with nucleotide resolution, providing thus information on the site selectivity of cleavage.

fertilised sea urchin = fertilised sea urchin assay; cited from earlier work
P388 = P388 cell line in culture; cited from earlier work
A549 = A549 cell line in culture; cited from earlier work
lung cancer cell lines = conditions: acting as a Type IV microtubule poison; cited from earlier work

stimulation of DNA cleavage by topoisomerase I / inhibition of topoisomerase I (nicked DNA band) in DNA relaxation assay (human topoisomerase I [1]): marked inhibition of topoisomerase I | topoisomerase I-mediated DNA cleavage sites / cleavage profile (human topoisomerase I [2]): Cleavage profiles identical to that of 3
Compound: COc1cc(-c2c3c4cc(OC)c(OC(=O)[C@@H](N)Cc5ccccc5)cc4oc(=O)c3n3ccc4cc(OC(=O)[C@@H](N)Cc5ccccc5)c(OC)cc4c23)ccc1OC(=O)[C@@H](N)Cc1ccccc1 [Compound 25]
potency at inhibiting topoisomerase I relative to the other amino acid derivatives (human topoisomerase I [1]; DNA relaxation assay): significantly less potent than the other amino acid derivatives

Compound: COc1cc(-c2c3n(c4c(=O)oc5cc(O)c(OC)cc5c24)CCc2c-3cc(OC)c(OC)c2OC)ccc1O [Lamellarin C, lamellarin C]
inhibition of cell division (fertilised sea urchin): inhibition of cell division

Compound: COc1cc2c(cc1O)oc(=O)c1c2c(-c2ccc(OC)c(OC)c2)c2n1CCc1c-2cc(OC)c(OC)c1OC [Lamellarin I, lamellarin I]
cytotoxicity (P388): comparable cytoxicity | cytotoxicity (A549): comparable cytoxicity

Compound: COc1cc(-c2c3n(c4c(=O)oc5cc(O)c(OC)cc5c24)CCc2c-3cc(OC)c(OC)c2O)ccc1O [Lamellarin K, lamellarin K]
cytotoxicity (P388): comparable cytoxicity | cytotoxicity (A549): comparable cytoxicity

Compound: COc1ccc(-c2c3n(c4c(=O)oc5cc(O)c(OC)cc5c24)CCc2cc(O)c(OC)cc2-3)cc1O [Lamellarin L, lamellarin L]
cytotoxicity (P388): comparable cytoxicity | cytotoxicity (A549): comparable cytoxicity

Compound: COc1ccc(-c2c3c4cc(OC)c(O)cc4oc(=O)c3n3ccc4cc(O)c(OC)cc4c23)cc1O [Lamellarin N, lamellarin N]
activity in lung cancer cell lines (lung cancer cell lines): exhibit activity in lung cancer cell lines

Compound: CC[C@@]1(O)C(=O)OCc2c1cc1n(c2=O)Cc2cc3ccccc3nc2-1 [camptothecin, reference compound]
stimulation of DNA cleavage by topoisomerase I / inhibition of topoisomerase I (nicked DNA band) in DNA relaxation assay (human topoisomerase I [1]): strongly promotes DNA cleavage by topoisomerase I | topoisomerase I-mediated DNA cleavage sites / cleavage profile (human topoisomerase I [2]): T^↓G only | topoisomerase I-mediated DNA cleavage sites / cleavage profile (human topoisomerase I [2]; listed as CPT): three sites at nucleotide positions 26, 48 and 81
